Assay results published in PMC9632963, “Preclinical characterization and phase I clinical trial of CT053PTSA targets MET, AXL, and VEGFR2 in patients with advanced solid tumors” (Frontiers in Immunology, 2022).
Like-named read-outs stand apart in the source and are kept apart here.

Experiment: Phase I trial: clinical pharmacokinetics in plasma
Format: in vivo, human
Conditions: for AUC(0-inf) / Cmax / AUC(0-t) / AUC / half-life / Tmax / Vd/F: human, plasma; for AUC(0-t): read-out: AUC0-168; for AUC: read-out: AUC0-τ; for Vd/F: read-out: Vz/F
Method: A clinical pharmacokinetic study of CT053PTSA was performed for both single doses and multiple doses. Blood samples were collected from each subject at prespecified times before and after single-dose administration (systemic blood samples: before treatment and 0.5, 1, 2, 3, 4, 5, 8, 12, 24, 36, 48, 72, 120 and 168 hours after treatment) and during multiple dosing (cycle 1 before treatment on Days 8, 15 and 22, as well as systemic blood samples on Day 28). […]
Statistical analysis of CT053-treated tumors versus vehicle-treated tumors or versus nontreated tumors was performed by repeated-measures ANOVA. The data from the tumor xenograft models were expressed as the means ± standard error of the mean (SEM) and were plotted as a function of time. Noncompartmental pharmacokinetic analysis was performed using Phoenix WinNonlin Version 6.2.1 (Certara Inc., NJ, USA). Demographics and laboratory results of all the subjects were summarized using descriptive statistics. The pharmacokinetic parameters Tmax and T1/2 were shown as the median (min, max) and mean ± SD, respectively. A two-sided P < 0.05 was considered to indicate statistical significance. Statistical analysis was performed by using GraphPad Prism 5.0 (GraphPad Prism, RRID : SCR_002798) and SPSS software version 19.0 (SPSS, RRID : SCR_002865).

[1] = oral, 15 mg, Multiple doses day 28, 15 mg, n=1
[2] = oral, 15 mg, Single dose day 1, 15 mg, n=1
[3] = oral, 30 mg, Multiple doses day 28, 30 mg, n=1
[4] = oral, 30 mg, Single dose day 1, 30 mg, n=1
[5] = oral, 60 mg, Multiple doses day 28, 60 mg, n=3, Geometric Mean (CV%)
[6] = oral, 60 mg, Single dose day 1, 60 mg, n=5, Geometric Mean (CV%)
[7] = oral, 100 mg, Multiple doses day 28, 100 mg, n=5, Geometric Mean (CV%)
[8] = oral, 100 mg, Single dose day 1, 100 mg, n=7, Geometric Mean (CV%)
[9] = oral, 150 mg, Multiple doses day 28, 150 mg, n=1
[10] = oral, 150 mg, Single dose day 1, 150 mg, n=4, Geometric Mean (CV%)

Cc1c(C(=O)Nc2ccc(Oc3ccnc4cc(OCC(C)(C)O)ccc34)c(F)c2)c(=O)n(-c2ccccc2)n1C [CT053PTSA]
Cl/F (Multiple doses day 28, 15 mg, n=1): 1580 mL/h | Cl/F (Multiple doses day 28, 30 mg, n=1): 1090 mL/h | Cl/F (Multiple doses day 28, 150 mg, n=1): 4470 mL/h | Cl/F (Single dose day 1, 15 mg, n=1): 2420 mL/h | Cl/F (Single dose day 1, 30 mg, n=1): 1000 mL/h | steady state reached (daily dosing): ≤ 8 days | AUC(0-inf) [1]: 24 µg·h/mL | Cmax [1]: 0.598 µg/mL | AUC(0-t) [1]: 23.7 µg·h/mL | AUC [1]: 9.51 µg·h/mL | half-life (oral, 15 mg, Multiple doses day 28, 15 mg, n=1, read-out: T1/2 (converted)): 27.9 h | Tmax (oral, 15 mg, Multiple doses day 28, 15 mg, n=1, read-out: Tmax): 2 h | Vd/F [1]: 63.5 L | AUC(0-inf) [2]: 6.19 µg·h/mL | Cmax [2]: 0.345 µg/mL | AUC(0-t) [2]: 6.12 µg·h/mL | AUC [2]: 3.76 µg·h/mL | half-life (oral, 15 mg, Single dose day 1, 15 mg, n=1, read-out: T1/2 (converted)): 31.4 h | Tmax (oral, 15 mg, Single dose day 1, 15 mg, n=1, read-out: Tmax): 3 h | Vd/F [2]: 110 L | AUC(0-inf) [3]: 84.1 µg·h/mL | Cmax [3]: 1.79 µg/mL | AUC(0-t) [3]: 81.2 µg·h/mL | AUC [3]: 27.6 µg·h/mL | half-life (oral, 30 mg, Multiple doses day 28, 30 mg, n=1, read-out: T1/2 (converted)): 38.4 h | Tmax (oral, 30 mg, Multiple doses day 28, 30 mg, n=1, read-out: Tmax): 2 h | Vd/F [3]: 60.2 L | AUC(0-inf) [4]: 29.9 µg·h/mL | Cmax [4]: 0.796 µg/mL | AUC(0-t) [4]: 29.1 µg·h/mL | AUC [4]: 12.3 µg·h/mL | half-life (oral, 30 mg, Single dose day 1, 30 mg, n=1, read-out: T1/2 (converted)): 31.9 h | Tmax (oral, 30 mg, Single dose day 1, 30 mg, n=1, read-out: Tmax): 3 h | Vd/F [4]: 46.2 L | AUC(0-inf) [5]: 91.1 µg·h/mL | Cmax [5]: 2.72 µg/mL | AUC(0-t) [5]: 89.7 µg·h/mL | AUC [5]: 37 µg·h/mL | Vd/F [5]: 60.5 L | half-life (oral, 60 mg, Multiple doses day 28, 60 mg, n=3, Mean ± SD, read-out: T1/2 (converted)): 26.1 ± 4.5 h | Tmax (oral, 60 mg, Multiple doses day 28, 60 mg, n=3, Median (Min, Max), read-out: Tmax): 2 h | AUC(0-inf) [6]: 29.2 µg·h/mL | Cmax [6]: 1.34 µg/mL | AUC(0-t) [6]: 28.7 µg·h/mL | AUC [6]: 13.7 µg·h/mL | Vd/F [6]: 71.8 L | half-life (oral, 60 mg, Single dose day 1, 60 mg, n=5, Mean ± SD, read-out: T1/2 (converted)): 24.7 ± 5.7 h | Tmax (oral, 60 mg, Single dose day 1, 60 mg, n=5, Median (Min, Max), read-out: Tmax): 2 h | AUC(0-inf) [7]: 156 µg·h/mL | Cmax [7]: 4.33 µg/mL | AUC(0-t) [7]: 146 µg·h/mL | AUC [7]: 57.3 µg·h/mL | Vd/F [7]: 90.9 L | half-life (oral, 100 mg, Multiple doses day 28, 100 mg, n=5, Mean ± SD, read-out: T1/2 (converted)): 38.2 ± 14.3 h | Tmax (oral, 100 mg, Multiple doses day 28, 100 mg, n=5, Median (Min, Max), read-out: Tmax): 2 h | AUC(0-inf) [8]: 57.7 µg·h/mL | Cmax [8]: 1.89 µg/mL | AUC(0-t) [8]: 56 µg·h/mL | AUC [8]: 24.4 µg·h/mL | Vd/F [8]: 79.8 L | half-life (oral, 100 mg, Single dose day 1, 100 mg, n=7, Mean ± SD, read-out: T1/2 (converted)): 32.8 ± 8.5 h | Tmax (oral, 100 mg, Single dose day 1, 100 mg, n=7, Median (Min, Max), read-out: Tmax): 2 h | AUC(0-inf) [9]: 50.6 µg·h/mL | Cmax [9]: 2.93 µg/mL | AUC(0-t) [9]: 50.5 µg·h/mL | AUC [9]: 33.6 µg·h/mL | half-life (oral, 150 mg, Multiple doses day 28, 150 mg, n=1, read-out: T1/2 (converted)): 13.8 h | Tmax (oral, 150 mg, Multiple doses day 28, 150 mg, n=1, read-out: Tmax): 2 h | Vd/F [9]: 88.7 L | AUC(0-inf) [10]: 68.5 µg·h/mL | Cmax [10]: 2.97 µg/mL | AUC(0-t) [10]: 65.5 µg·h/mL | AUC [10]: 30.5 µg·h/mL | Vd/F [10]: 99.8 L | half-life (oral, 150 mg, Single dose day 1, 150 mg, n=4, Mean ± SD, read-out: T1/2 (converted)): 33.9 ± 13.7 h | Tmax (oral, 150 mg, Single dose day 1, 150 mg, n=4, Median (Min, Max), read-out: Tmax): 2.5 h | Tmax (po, multiple doses, oral, read-out: median Tmax): 2 h | half-life (po, multiple oral doses, read-out: mean half-life, range over cohorts): 13.8 to 38.4 h | Tmax (po, single dose, oral, read-out: median Tmax): 2 to 3 h | half-life (po, single oral dose, read-out: mean half-life, range over cohorts): 24.7 to 33.9 h
